Legend:
[1] = system: TP 242 MG cells; test: growth curve, glioblastoma cells; format: cell-based, human; conditions: for Cell count: 25 μM/ml
Description: (§1) The neuroblastoma cell line and the three glioblastoma cell lines were cultivated in Ham's F10 medium enriched with 10% fetal calf serum (FCS) and the usual quantity of penicillin, streptomycin (Pen/Strep) and glutamine. The epidermoidal cell line was cultivated in modified Eagle's Medium (MEM), likewise enriched with 10% (FCS) and the usual quantity of glutamine and Pen/Strep.
(§2) In each case 5×10^4 cells were plated out in T25 bottles, the untreated cells being incubated in analogous conditions as control. The cell count was microscopically determined after 3, 5, 7, 10 and 12 days.

[2] = system: U 178 MG cells; test: growth curve, glioblastoma cells; format: cell-based, human; conditions: for Cell count: 25 μM/ml
Description: as §1, §2

[3] = system: TP 336 MG cells; test: growth curve, glioblastoma cells; format: cell-based, human; conditions: for Cell count: 10 μM/ml
Description: as §1, §2

[4] = system: A 431 cells; test: growth curve, epidermoidal carcinoma cells; format: cell-based, human; conditions: for Cell count: 10 μM/ml
Description: as §1, §2

[5] = system: DU-145 cells; test: cell growth, combination with TNF; format: cell-based; conditions: 7-OH-1,2-BP 500 μM/ml; TNF 1 nM/ml; combination 500 μM/1 nM; 4 days; 3×10^4 cells/well; control 51.86 + 3.06
Description: (§4) Various cell lines (DU-145, PC-3 and LNCaP) from prostate carcinomas were used.
(§5) Initial cell count: 3×10^4 cells/well; exposure period: DU-145, PC-3: 4 days; LNCaP: 6 days

[6] = system: G-361 melanoma cells; test: 3H-thymidine assay; format: cell-based; conditions: Homo sapiens, G-361
[7] = system: HCV cells; test: 3H-thymidine assay; format: cell-based
[8] = system: erythroleukemic cells (K 562); test: photometric cell count / mitochondrial activity; format: cell-based; conditions: 20 hours, increasing concentrations
Description: (§3) Subsequently the cell count was photometrically determined according to Alley M. C. et al., Cancer Research 48, 589-601 (1988). In the process, a colorant is added to the cells that have been mixed with medium, the colorant being so converted by cells with mitochondrial activity that a photometric determination of the cell count is possible.

[9] = system: bladder tumor cells; test: photometric cell count / mitochondrial activity; format: cell-based; conditions: 20 hours, increasing concentrations
Description: as §3

[10] = system: PDGF receptors and EGF system; test: expression of receptors / EGF system; format: cell-based; conditions: Seliger et al., unpublished results
Description: In connection with the neoplastic transformation and increased proliferation rate of glioblastoma cells, two autocrinic loops, the EGF and the PDGF system, are discussed.

[11] = system: CAKI-2 cells; test: 3H-thymidine assay; format: cell-based; conditions: Homo sapiens, CAKI-2
Description: The cell lines were cultivated as indicated in Example 1.
The antiproliferative effect of the 1,2-benzopyrone derivatives according to the invention on the tumor cell lines in each case was shown with the help of the ^3 H-thymidine insertion and with reference to growth curves.
In a 24-well-plate, in each case 10^4 cells of the line to be investigated were inoculated per well. Approximately 48 hours later the cells were half-confluent; the medium was then changed and replaced by a medium containing the active substance in question (cf Table 3). […] Subsequently the cultures were washed twice with ice-cold PBS and the high-molecular-weight ^3 H-radioactivity was precipitated with 5% trichloroacetic acid for one hour at 4° C. After the washing of the cells in PBS the ^3 H-radioactivity was solubilized with 0.3M NaOH and measured in the counter. The growth-inhibition was determined by comparing the thymidine insertion of the cells treated with active substance with untreated cells.
The active substance concentration in each case was so chosen that ^3 H-thymidine insertion was 50% inhibited. The active substance concentrations used under this aspect for the active substances and cell lines in each case are given in table 4 below in μM/ml, […]

[12] = system: LNCap cells; test: cell growth in combination with testosterone; format: cell-based, human
[13] = system: brain-tumor cells (glioblastoma cells); test: growth inhibition of brain-tumor cells; format: cell-based; conditions: Tables 1 to 3
[14] = system: GV-1 prostate carcinoma cells; test: 3H-thymidine assay; format: cell-based
[15] = system: PC-3 cells; test: cell growth, combination with TNF; format: cell-based; conditions: 7-OH-1,2-BP 500 μM/ml; TNF 1 nM/ml; combination 500 μM/1 nM; 4 days; 3×10^4 cells/well; control 18.58 + 1.05
Description: as §4, §5

[16] = Homo sapiens, 288 h, 25 μM/ml (Table 2), read-out: % growth inhibition compared with control after 12 days
[17] = 1 μM/ml, read-out: 3H-thymidine tracer (%) of control
[18] = 2 μM/ml, read-out: 3H-thymidine tracer (%) of control
[19] = 4 μM/ml, read-out: 3H-thymidine tracer (%) of control
[20] = 8 μM/ml, read-out: 3H-thymidine tracer (%) of control
[21] = 16 μM/ml, read-out: 3H-thymidine tracer (%) of control
[22] = 25 μM/ml, read-out: 3H-thymidine tracer (%) of control
[23] = 50 μM/ml, read-out: 3H-thymidine tracer (%) of control
[24] = 100 μM/ml, read-out: 3H-thymidine tracer (%) of control
[25] = 250 μM/ml, read-out: 3H-thymidine tracer (%) of control
[26] = 500 μM/ml, read-out: 3H-thymidine tracer (%) of control
[27] = Table 4, *: maximum usable dosage, no 50% inhibition, read-out: active substance concentration at which 3H-thymidine insertion was 50% inhibited

For `O=c1ccc2ccc(O)cc2o1` [7-OH-1,2-BP, 7-hydroxy-1,2-benzopyrone], the Cell count ([1]; after 3 days, control 10) was 4 × 10^4, the Cell count ([1]; after 5 days, control 15) was 6 × 10^4 and the Cell count ([1]; after 7 days, control 23) was 8 × 10^4. The Cell count ([1]; after 10 days, control 49) was 10 × 10^4, the Cell count ([1]; after 12 days, control 57) was 12 × 10^4 and the inhibition at 25 µM [1, 16] was 79%. The Cell count ([2]; after 3 days, control 23) was 15 × 10^4, the Cell count ([2]; after 5 days, control 57) was 13 × 10^4 and the Cell count ([2]; after 7 days, control 84) was 26 × 10^4. The inhibition at 25 µM [2, 16] was 74%, the Cell count ([3]; after 3 days, control 13) was 7 × 10^4 and the Cell count ([3]; after 5 days, control 25) was 11 × 10^4. The Cell count ([3]; after 7 days, control 39) was 22 × 10^4, the Cell count ([3]; after 10 days, control 34) was 18 × 10^4 and the Cell count ([3]; after 12 days, control 45) was 18 × 10^4. For the same molecule, the inhibition at 10 µM ([3]; Homo sapiens, 288 h, 10 μM/ml (Table 2), read-out: % growth inhibition compared with control after 12 days) was 60%, the Cell count ([4]; after 3 days, control 6) was 4 × 10^4 and the Cell count ([4]; after 5 days, control 24) was 10 × 10^4. The Cell count ([4]; after 7 days, control 45) was 3 × 10^4, the Cell count ([4]; after 10 days, control 56) was 12 × 10^4 and the Cell count ([4]; after 12 days, control 87) was 21 × 10^4. The inhibition at 10 µM ([4]; Homo sapiens, A-431, 288 h, 10 μM/ml (Table 2), read-out: % growth inhibition compared with control after 12 days) was 76%, the Cell growth [5] was 38.30 + 2.92 and the activity at 1 µM [6, 17] was 94%. The activity at 2 µM [6, 18] was 91%, the activity at 4 µM [6, 19] was 77% and the activity at 8 µM [6, 20] was 77%. For the same molecule, the activity at 16 µM [6, 21] was 74%, the activity at 25 µM [6, 22] was 68% and the activity at 50 µM [6, 23] was 58%. It also gave an activity at 100 µM [6, 24] of 53%, an activity at 250 µM [6, 25] of 42% and an activity at 500 µM [6, 26] of 38%. The IC50 [6, 27] was 125 µM, the activity at 1 µM [7, 17] was 98% and the activity at 2 µM [7, 18] was 95%. The activity at 4 µM [7, 19] was 88%, the activity at 8 µM [7, 20] was 82% and the activity at 16 µM [7, 21] was 74%. It also gave an activity at 25 µM [7, 22] of 69%, an activity at 50 µM [7, 23] of 63% and an activity at 250 µM [7, 25] of 57%. The activity at 500 µM [7, 26] was 50%, the IC50 [7, 27] was 500 µM and the “inhibition of mitochondrial activity” value [8] was “a dosage-related inhibition of the mitochondrial activity occurs”. The “inhibition of mitochondrial activity” value [9] was “a dosage-related inhibition of the mitochondrial activity occurs”, the “expression of PDGF receptors and of the EGF system” value [10] was “not influenced” and the activity at 1 µM [11, 17] was 95%. The activity at 2 µM [11, 18] was 92%, the activity at 4 µM [11, 19] was 88% and the activity at 8 µM [11, 20] was 77%. It also gave an activity at 16 µM [11, 21] of 71%, an activity at 25 µM [11, 22] of 65% and an activity at 50 µM [11, 23] of 54%. The activity at 100 µM [11, 24] was 46%, the activity at 150 µM ([11]; 150 μM/ml, read-out: 3H-thymidine tracer (%) of control) was 39% and the activity at 500 µM [11, 26] was 35%. For the same molecule, the IC50 [11, 27] was 75 µM, the “inhibition of cell growth” value ([12]; 500 μM 7-OH-1,2-BP/ml medium combined with 20 nM testosterone) was “virtually complete inhibition of cell growth” and the “increase of growth inhibition by additional hormone therapy” value ([12]; for example testosterone) was “can be increased by additional hormone therapy”. The “growth-inhibiting effect on brain-tumor cells” value [13] was “strong growth-inhibiting effect on brain-tumor cells”, the activity at 1 µM [14, 17] was 100% and the activity at 2 µM [14, 18] was 89%. It also gave an activity at 4 µM [14, 19] of 83%, an activity at 8 µM [14, 20] of 75% and an activity at 16 µM [14, 21] of 69%. The activity at 25 µM [14, 22] was 63%, the activity at 50 µM [14, 23] was 51% and the activity at 100 µM [14, 24] was 39%. It also gave an activity at 250 µM [14, 25] of 36%, an activity at 500 µM [14, 26] of 27% and an IC50 ([14]; Table 4, read-out: active substance concentration at which 3H-thymidine insertion was 50% inhibited) of 75 µM. The Cell growth [15] was 11.51 + 0.63.

Source: patent US5525626A (priority 1989, dated 1996)
